# Reference: ChEMBL document CHEMBL1201862, “PubChem BioAssay data set” (2004)
#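 How tested: cells in 96-well plates exposed to compound for 48 hours at five concentrations. GI50 is the concentration that inhibits growth by half.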 Activity calls are given as the source filed them. No stated cut-off is given here; in the data, active = GI50 up to about 1.1 µM and inactive = higher.
# Tests used:
# Assay in all cases: DTP human tumour cell line panel, 48 h
# Malme-3M = test system: Malme-3M
# TK-10 = test system: TK-10
# NCI-H522 = test system: NCI-H522
# SK-MEL-5 = test system: SK-MEL-5
# OVCAR-4 = test system: OVCAR-4
# U-251 = test system: U-251
# HOP-62 = test system: HOP-62
# SNB-19 = test system: SNB-19
# NCI-H23 = test system: NCI-H23
# HCT-116 = test system: HCT-116
# SF-268 = test system: SF-268
# HT-29 = test system: HT-29
# PC-3 = test system: PC-3
# A498 = test system: A498
# CAKI-1 = test system: CAKI-1
# OVCAR-3 = test system: OVCAR-3
# COLO 205 = test system: COLO 205
# M14 = test system: M14
# SK-MEL-28 = test system: SK-MEL-28
# K562 = test system: K562
SMILES,GI50 (Malme-3M),GI50 (TK-10),GI50 (NCI-H522),GI50 (SK-MEL-5),GI50 (OVCAR-4),GI50 (U-251),GI50 (HOP-62),GI50 (SNB-19),GI50 (NCI-H23),GI50 (HCT-116),GI50 (SF-268),GI50 (HT-29),GI50 (PC-3),GI50 (A498),GI50 (CAKI-1),GI50 (OVCAR-3),GI50 (COLO 205),GI50 (M14),GI50 (SK-MEL-28),GI50 (K562)
CN(C)Cc1cc(/N=N/c2ccc(Cl)cc2)ccc1O,14 µM (inactive),15 µM (inactive),13.5 µM (inactive),14.4 µM (inactive),16.5 µM (inactive),17.4 µM (inactive),10.1 µM (inactive),17.3 µM (inactive),23 µM (inactive),16.7 µM (inactive),14.8 µM (inactive),12.6 µM (inactive),14.7 µM (inactive),16.4 µM (inactive),15.4 µM (inactive),11.5 µM (inactive),3.81 µM (inactive),9.75 µM (inactive),16 µM (inactive),17.3 µM (inactive)
CCOc1cc(NC(C)=O)ccc1C(=O)NNC(=O)c1ccccc1OC(C)=O,21.7 µM (inactive),1.5 µM (inactive),5.83 µM (inactive),5.78 µM (inactive),4.32 µM (inactive),4.69 µM (inactive),8.61 µM (inactive),21.9 µM (inactive),18 µM (inactive),3.59 µM (inactive),7.24 µM (inactive),34 µM (inactive),11.1 µM (inactive),16.1 µM (inactive),3.21 µM (inactive),3.24 µM (inactive),21.5 µM (inactive),7.18 µM (inactive),21.5 µM (inactive),3.02 µM (inactive)
COC(=O)/C=C\C(C#N)(C#N)/N=C/c1ccccc1,2.21 µM (inactive),2.25 µM (inactive),0.471 µM (active),13.5 µM (inactive),4.22 µM (inactive),17.7 µM (inactive),18.5 µM (inactive),23.9 µM (inactive),7.35 µM (inactive),1.77 µM (inactive),4.95 µM (inactive),4.49 µM (inactive),5.94 µM (inactive),18.7 µM (inactive),2.86 µM (inactive),2.11 µM (inactive),1.62 µM (inactive),2.25 µM (inactive),6 µM (inactive),3.37 µM (inactive)
NC(Cc1ccccc1)(C(=O)O)C(=O)O,> 100 µM (inactive),> 100 µM (inactive),> 100 µM (inactive),> 100 µM (inactive),> 100 µM (inactive),> 100 µM (inactive),> 100 µM (inactive),> 100 µM (inactive),> 100 µM (inactive),> 100 µM (inactive),> 100 µM (inactive),> 100 µM (inactive),> 100 µM (inactive),> 100 µM (inactive),14.8 µM (inactive),> 100 µM (inactive),> 100 µM (inactive),> 100 µM (inactive),> 100 µM (inactive),> 100 µM (inactive)
O=C(O)CCCc1ccc(N(CCCl)CCCl)cc1 [CHLORAMBUCIL],70.3 µM (inactive),171 µM (inactive),28.4 µM (inactive),88.5 µM (inactive),136 µM (inactive),42.8 µM (inactive),36.1 µM (inactive),96.2 µM (inactive),26.6 µM (inactive),106 µM (inactive),34.9 µM (inactive),130 µM (inactive),99.3 µM (inactive),125 µM (inactive),17.3 µM (inactive),111 µM (inactive),115 µM (inactive),62.7 µM (inactive),106 µM (inactive),107 µM (inactive)
